In article PMC5218480 (PLoS ONE, 2017):

System: MV-4-11 cells
Experiment: Gene expression microarray analysis (Affymetrix PrimeView) and GSEA
Type: cell-based, human
Set-up: RFU PODN (11730768_x_at) / Fold change /veh PODN (11730768_x_at) / RFU LINC00158 (11744669_a_at) / Fold change /veh LINC00158 (11744669_a_at) / RFU DUSP10 (11751237_a_at) / Fold change /veh DUSP10 (11751237_a_at) / RFU ID3 (11757404_x_at) / Fold change /veh ID3 (11757404_x_at) / RFU PLEKHG5 (11737974_s_at) / Fold change /veh PLEKHG5 (11737974_s_at) / RFU LRRC4B (11730491_at) / Fold change /veh LRRC4B (11730491_at) / RFU GIMAP4 (11747438_a_at) / Fold change /veh GIMAP4 (11747438_a_at) / RFU KRT8 (11758183_x_at) / Fold change /veh KRT8 (11758183_x_at) / RFU CNN1 (11734310_a_at) / Fold change /veh CNN1 (11734310_a_at) / RFU VPS37D (11726825_at) / Fold change /veh VPS37D (11726825_at) / RFU C10orf10 (11716522_x_at) / Fold change /veh C10orf10 (11716522_x_at) / RFU KIR2DL2 /// KIR2DL4 /// KIR2DL5A /// KIR2DL5B /// KIR2DS1 /// KIR2DS2 /// KIR2DS3 /// KIR2DS4 /// KIR3DL3 /// KIR3DL3 /// KIR3DS1 (11738374_at) / Fold change /veh KIR2DL2 /// KIR2DL4 /// KIR2DL5A /// KIR2DL5B /// KIR2DS1 /// KIR2DS2 /// KIR2DS3 /// KIR2DS4 /// KIR3DL3 /// KIR3DL3 /// KIR3DS1 (11738374_at) / RFU C1QL1 (11718748_at) / Fold change /veh C1QL1 (11718748_at) / RFU TMPRSS4 (11747572_a_at) / Fold change /veh TMPRSS4 (11747572_a_at) / RFU HAMP (11756126_x_at) / Fold change /veh HAMP (11756126_x_at) / RFU RNFT2 (11725882_a_at) / Fold change /veh RNFT2 (11725882_a_at) / RFU NR4A2 (11747474_a_at) / Fold change /veh NR4A2 (11747474_a_at) / RFU ABCC12 (11746883_a_at) / Fold change /veh ABCC12 (11746883_a_at) / RFU TMEM136 (11760407_x_at) / Fold change /veh TMEM136 (11760407_x_at) / RFU CLDN22 /// WWC2 (11732394_at) / Fold change /veh CLDN22 /// WWC2 (11732394_at) / RFU HLA-DPB1 (11760878_x_at) / Fold change /veh HLA-DPB1 (11760878_x_at) / RFU SPINT1 (11716480_a_at) / Fold change /veh SPINT1 (11716480_a_at) / RFU GAP43 (11754022_s_at) / Fold change /veh GAP43 (11754022_s_at) / RFU A4GNT (11735810_at) / Fold change /veh A4GNT (11735810_at) / RFU PRB3 (11715151_x_at) / Fold change /veh PRB3 (11715151_x_at) / RFU TUBB4B (11761932_at) / Fold change /veh TUBB4B (11761932_at) / RFU CAPN14 (11732068_a_at) / Fold change /veh CAPN14 (11732068_a_at) / RFU TMCC2 (11721928_a_at) / Fold change /veh TMCC2 (11721928_a_at) / RFU IRGQ (11745062_a_at) / Fold change /veh IRGQ (11745062_a_at) / RFU FAM174B (11720279_a_at) / Fold change /veh FAM174B (11720279_a_at) / RFU TMPRSS4 (11748680_a_at) / Fold change /veh TMPRSS4 (11748680_a_at) / RFU FAM212B (11763350_a_at) / Fold change /veh FAM212B (11763350_a_at) / RFU PLEKHG5 (11743358_a_at) / Fold change /veh PLEKHG5 (11743358_a_at) / RFU ZSCAN30 (11745921_a_at) / Fold change /veh ZSCAN30 (11745921_a_at) / RFU CMKLR1 (11741424_a_at) / Fold change /veh CMKLR1 (11741424_a_at) / RFU LOC101060620 /// MAPK8IP1 (11723275_at) / Fold change /veh LOC101060620 /// MAPK8IP1 (11723275_at) / RFU SPTSSB (11747773_x_at) / Fold change /veh SPTSSB (11747773_x_at) / RFU PRSS12 (11739890_at) / Fold change /veh PRSS12 (11739890_at) / RFU BIN1 (11741810_x_at) / Fold change /veh BIN1 (11741810_x_at) / RFU WNT11 (11732464_a_at) / Fold change /veh WNT11 (11732464_a_at) / RFU C10orf10 (11716521_a_at) / Fold change /veh C10orf10 (11716521_a_at) / RFU C5orf56 (11738089_at) / Fold change /veh C5orf56 (11738089_at) / RFU CYB561 (11721691_x_at) / Fold change /veh CYB561 (11721691_x_at) / RFU ANKRD19P (11752326_a_at) / Fold change /veh ANKRD19P (11752326_a_at) / RFU OR2T12 /// OR2T33 /// OR2T8 (11738714_s_at) / Fold change /veh OR2T12 /// OR2T33 /// OR2T8 (11738714_s_at) / RFU VCAN (11748164_a_at) / Fold change /veh VCAN (11748164_a_at) / RFU JSRP1 (11732532_at) / Fold change /veh JSRP1 (11732532_at) / RFU KRTAP10-11 (11738290_x_at) / Fold change /veh KRTAP10-11 (11738290_x_at) / RFU MYO3A (11730013_a_at) / Fold change /veh MYO3A (11730013_a_at) / RFU EBF3 (11725865_a_at) / Fold change /veh EBF3 (11725865_a_at) / RFU CAMK2N1 (11719241_x_at) / Fold change /veh CAMK2N1 (11719241_x_at) / RFU C5orf56 (11738088_a_at) / Fold change /veh C5orf56 (11738088_a_at) / RFU OLFML3 (11715873_a_at) / Fold change /veh OLFML3 (11715873_a_at) / RFU LOC100653217 /// NTM (11731650_a_at) / Fold change /veh LOC100653217 /// NTM (11731650_a_at) / RFU MAPK11 (11762145_a_at) / Fold change /veh MAPK11 (11762145_a_at) / RFU FIZ1 (11724087_x_at) / Fold change /veh FIZ1 (11724087_x_at) / RFU OASL (11726364_x_at) / Fold change /veh OASL (11726364_x_at) / RFU SOX15 (11748057_x_at) / Fold change /veh SOX15 (11748057_x_at) / RFU CD79A (11719716_a_at) / Fold change /veh CD79A (11719716_a_at) / RFU HIST1H1D (11736915_at) / Fold change /veh HIST1H1D (11736915_at) / RFU CASKIN2 (11723855_a_at) / Fold change /veh CASKIN2 (11723855_a_at) / RFU LOC730098 (11760151_x_at) / Fold change /veh LOC730098 (11760151_x_at) / RFU OR4N2 (11742367_at) / Fold change /veh OR4N2 (11742367_at) / RFU PRRT2 (11749266_a_at) / Fold change /veh PRRT2 (11749266_a_at) / RFU SNX32 (11753110_a_at) / Fold change /veh SNX32 (11753110_a_at) / RFU CDHR5 (11726645_a_at) / Fold change /veh CDHR5 (11726645_a_at) / RFU RCAN1 (11760418_a_at) / Fold change /veh RCAN1 (11760418_a_at) / RFU FAM167A (11723789_a_at) / Fold change /veh FAM167A (11723789_a_at) / RFU FAM26E (11764081_at) / Fold change /veh FAM26E (11764081_at) / RFU ISYNA1 (11749810_s_at) / Fold change /veh ISYNA1 (11749810_s_at) / RFU ACY1 (11761880_at) / Fold change /veh ACY1 (11761880_at) / RFU 11764098_at / Fold change /veh 11764098_at / RFU SAMD14 (11745864_x_at) / Fold change /veh SAMD14 (11745864_x_at) / RFU NPB (11741838_a_at) / Fold change /veh NPB (11741838_a_at) / RFU TMPRSS6 (11731388_a_at) / Fold change /veh TMPRSS6 (11731388_a_at) / RFU KRTAP10-2 (11738614_at) / Fold change /veh KRTAP10-2 (11738614_at) / RFU ARHGAP8 /// PRR5-ARHGAP8 (11727945_x_at) / Fold change /veh ARHGAP8 /// PRR5-ARHGAP8 (11727945_x_at) / RFU KRTAP5-7 /// NADSYN1 (11734609_at) / Fold change /veh KRTAP5-7 /// NADSYN1 (11734609_at) / RFU RASL12 (11751679_a_at) / Fold change /veh RASL12 (11751679_a_at) / RFU CDKN2B (11736163_a_at) / Fold change /veh CDKN2B (11736163_a_at) / RFU PRF1 (11729649_at) / Fold change /veh PRF1 (11729649_at) / RFU, ZNF638 /// ZNF638-IT1 / Fold change vs veh, ZNF638 /// ZNF638-IT1 / RFU, PANK3 / Fold change vs veh, PANK3 / RFU, SH3YL1 / Fold change vs veh, SH3YL1 / RFU, ZEB2 / Fold change vs veh, ZEB2 / RFU, NRIP1 / Fold change vs veh, NRIP1 / RFU, PTTG1IP / Fold change vs veh, PTTG1IP / RFU, CAPN2 / Fold change vs veh, CAPN2 / RFU, MED14 / Fold change vs veh, MED14 / RFU, SNORA58 / Fold change vs veh, SNORA58 / RFU, C1orf63 / Fold change vs veh, C1orf63 / RFU, LRRFIP1 / Fold change vs veh, LRRFIP1 / RFU, NDUFAF7 / Fold change vs veh, NDUFAF7 / RFU, SLC12A2 / Fold change vs veh, SLC12A2 / RFU, IBTK / Fold change vs veh, IBTK / RFU, ESF1 / Fold change vs veh, ESF1 / Fold change vs veh, TMEM50B / RFU, TAOK1 / Fold change vs veh, TAOK1 / RFU, ACBD3 / Fold change vs veh, ACBD3 / RFU, TMA16 / Fold change vs veh, TMA16 / RFU, RWDD3 / Fold change vs veh, RWDD3 / RFU, BCAT1 / Fold change vs veh, BCAT1 / RFU, EDEM3 / Fold change vs veh, EDEM3 / RFU, TMEM33 / Fold change vs veh, TMEM33 / RFU, WDR75 / Fold change vs veh, WDR75 / RFU, AHCTF1 / Fold change vs veh, AHCTF1 / RFU, TFRC / Fold change vs veh, TFRC / RFU, ZDHHC17 / Fold change vs veh, ZDHHC17 / RFU, NOM1 / Fold change vs veh, NOM1 / RFU, ARL8B / Fold change vs veh, ARL8B / RFU, ZBTB11 / Fold change vs veh, ZBTB11 / RFU, TAMM41 / Fold change vs veh, TAMM41 / RFU, KIAA1704 /// LOC100996395 / Fold change vs veh, KIAA1704 /// LOC100996395 / RFU, ING1 / Fold change vs veh, ING1 / RFU, TRMT61B / Fold change vs veh, TRMT61B / RFU, FUBP3 / Fold change vs veh, FUBP3 / RFU, TP53 / Fold change vs veh, TP53 / RFU, TNKS2 / Fold change vs veh, TNKS2 / RFU, ZFP14 / Fold change vs veh, ZFP14 / RFU, ACTR2 / Fold change vs veh, ACTR2 / RFU, PPP3R1 / Fold change vs veh, PPP3R1 / RFU, PIK3R1 / Fold change vs veh, PIK3R1 / RFU, HNRNPA1 / Fold change vs veh, HNRNPA1 / RFU, RNF170 / Fold change vs veh, RNF170 / RFU, ZNF28 / Fold change vs veh, ZNF28 / RFU, RNGTT / Fold change vs veh, RNGTT / RFU, OGT / Fold change vs veh, OGT / RFU, BRD1 / Fold change vs veh, BRD1 / RFU, MARS / Fold change vs veh, MARS / RFU, ZNF655 / Fold change vs veh, ZNF655 / RFU, FAHD1 / Fold change vs veh, FAHD1 / RFU, BDP1 / Fold change vs veh, BDP1 / RFU, LRRCC1 / Fold change vs veh, LRRCC1 / RFU, ARID1A / Fold change vs veh, ARID1A / RFU, ZNF146 / Fold change vs veh, ZNF146 / RFU, ZNF330 / Fold change vs veh, ZNF330 / RFU, GPN3 / Fold change vs veh, GPN3 / RFU, C9orf123 / Fold change vs veh, C9orf123 / RFU, N4BP2L2 / Fold change vs veh, N4BP2L2 / RFU, ARFIP1 / Fold change vs veh, ARFIP1 / RFU, FAM179B / Fold change vs veh, FAM179B / RFU, BCL10 / Fold change vs veh, BCL10 / RFU, UHRF1BP1L / Fold change vs veh, UHRF1BP1L / RFU, BET1 / Fold change vs veh, BET1 / RFU, CNOT2 / Fold change vs veh, CNOT2 / RFU, ZNF268 / Fold change vs veh, ZNF268 / Fold change vs veh, ZNF507 / RFU, DGCR2 / Fold change vs veh, DGCR2 / RFU, WDSUB1 / Fold change vs veh, WDSUB1 / Fold change vs veh, HSP90B1 /// MIR3652 / RFU, ADSS / Fold change vs veh, ADSS / RFU, GK / Fold change vs veh, GK / RFU, ZNF148 / Fold change vs veh, ZNF148 / RFU, TAF9 / Fold change vs veh, TAF9 / RFU, SLC1A5 / Fold change vs veh, SLC1A5 / RFU, SLMO2 / Fold change vs veh, SLMO2 / RFU, ABCC4 / Fold change vs veh, ABCC4 / RFU, LOC101060439 /// RAP1B / Fold change vs veh, LOC101060439 /// RAP1B / RFU, RFX7 / Fold change vs veh, RFX7 / RFU, GTPBP10 / Fold change vs veh, GTPBP10 / RFU, CNEP1R1 / Fold change vs veh, CNEP1R1 / RFU, BIVM-ERCC5 /// ERCC5 / Fold change vs veh, BIVM-ERCC5 /// ERCC5 / RFU, ILF3 / Fold change vs veh, ILF3 / RFU 11762660_at / Fold change /veh 11762660_at / RFU VCAN (11757783_s_at) / Fold change /veh VCAN (11757783_s_at) / RFU DDX43 (11728927_at) / Fold change /veh DDX43 (11728927_at) / RFU KRT8 (11758188_x_at) / Fold change /veh KRT8 (11758188_x_at) / RFU NKD1 (11759106_at) / Fold change /veh NKD1 (11759106_at) / RFU SRD5A1 (11742802_a_at) / Fold change /veh SRD5A1 (11742802_a_at) / RFU TPSAB1 /// TPSB2 (11721975_s_at) / Fold change /veh TPSAB1 /// TPSB2 (11721975_s_at) / RFU GSTM3 (11746129_a_at) / Fold change /veh GSTM3 (11746129_a_at) / RFU IL23R (11737362_x_at) / Fold change /veh IL23R (11737362_x_at) / RFU TMEM51 (11727254_a_at) / Fold change /veh TMEM51 (11727254_a_at) / RFU PIWIL2 (11732686_x_at) / Fold change /veh PIWIL2 (11732686_x_at) / RFU ORM1 (11744905_x_at) / Fold change /veh ORM1 (11744905_x_at) / RFU CCDC152 (11743942_at) / Fold change /veh CCDC152 (11743942_at) / RFU ECM1 (11717891_a_at) / Fold change /veh ECM1 (11717891_a_at) / RFU IL23R (11748794_a_at) / Fold change /veh IL23R (11748794_a_at) / RFU TNFAIP8L3 (11732012_x_at) / Fold change /veh TNFAIP8L3 (11732012_x_at) / RFU MBOAT4 (11741988_at) / Fold change /veh MBOAT4 (11741988_at) / RFU 11764193_at / Fold change /veh 11764193_at / RFU TMEM53 (11763286_at) / Fold change /veh TMEM53 (11763286_at) / RFU MAGEB2 (11727129_at) / Fold change /veh MAGEB2 (11727129_at) / RFU TMEM200A (11744735_a_at) / Fold change /veh TMEM200A (11744735_a_at) / RFU CCDC152 (11751479_a_at) / Fold change /veh CCDC152 (11751479_a_at) / RFU FAM211A (11726209_a_at) / Fold change /veh FAM211A (11726209_a_at) / RFU RGS16 (11746705_a_at) / Fold change /veh RGS16 (11746705_a_at) / RFU VCAN (11755009_s_at) / Fold change /veh VCAN (11755009_s_at) / RFU RHOB (11743442_s_at) / Fold change /veh RHOB (11743442_s_at) / RFU RGS16 (11720943_a_at) / Fold change /veh RGS16 (11720943_a_at) / RFU RGS16 (11720944_at) / Fold change /veh RGS16 (11720944_at) / RFU, VPS4B / Fold change vs veh, VPS4B / RFU, CREB1 / Fold change vs veh, CREB1 / RFU, DNAJC13 / Fold change vs veh, DNAJC13 / RFU, GNAQ / Fold change vs veh, GNAQ / RFU, CDK5R1 / Fold change vs veh, CDK5R1 / RFU, ZRANB3 / Fold change vs veh, ZRANB3 / RFU, CUL4A / Fold change vs veh, CUL4A / RFU, CCNY / Fold change vs veh, CCNY / RFU, UFL1 / Fold change vs veh, UFL1 / RFU, COG3 / Fold change vs veh, COG3 / RFU, DIAPH2 / Fold change vs veh, DIAPH2 / RFU, SKA2 / Fold change vs veh, SKA2 / RFU, AFF3 / Fold change vs veh, AFF3 / RFU, LMF1 / Fold change vs veh, LMF1 / RFU, IPO11 / Fold change vs veh, IPO11 / RFU, DFFB / Fold change vs veh, DFFB / RFU, FOXP1 / Fold change vs veh, FOXP1 / RFU, CARD8 / Fold change vs veh, CARD8 / RFU, STRN3 / Fold change vs veh, STRN3 / RFU, ADK / Fold change vs veh, ADK / RFU, RASSF2 / Fold change vs veh, RASSF2 / RFU, WIPF1 / Fold change vs veh, WIPF1 / RFU, LARP1B / Fold change vs veh, LARP1B / RFU, RASA1 / Fold change vs veh, RASA1 / RFU, RB1 / Fold change vs veh, RB1 / RFU, PPFIA1 / Fold change vs veh, PPFIA1 / RFU, MAT2A / Fold change vs veh, MAT2A / RFU, CCT5 / Fold change vs veh, CCT5 / RFU, WDR92 / Fold change vs veh, WDR92 / RFU, CUX1 / Fold change vs veh, CUX1 / RFU, TTC7A / Fold change vs veh, TTC7A / RFU, TMEM135 / Fold change vs veh, TMEM135 / RFU, DEPTOR / Fold change vs veh, DEPTOR / RFU, CPM / Fold change vs veh, CPM / RFU, DNAJB6 / Fold change vs veh, DNAJB6 / RFU, CACNA2D3 / Fold change vs veh, CACNA2D3 / RFU, DTX4 / Fold change vs veh, DTX4 / RFU, TFCP2 / Fold change vs veh, TFCP2 / RFU, GMCL1 /// GMCL1P1 / Fold change vs veh, GMCL1 /// GMCL1P1 / RFU, AEBP2 / Fold change vs veh, AEBP2 / RFU, SNHG1 /// SNORD22 /// SNORD25 /// SNORD26 /// SNORD27 /// SNORD28 /// SNORD29 /// SNORD31 / Fold change vs veh, SNHG1 /// SNORD22 /// SNORD25 /// SNORD26 /// SNORD27 /// SNORD28 /// SNORD29 /// SNORD31 / Fold change (Aza/veh), C12orf56 (ProbeSet 11735607_a_at) / Fold change (ACY-1035/veh), C12orf56 (ProbeSet 11735607_a_at) / Fold change (Aza/veh), FGFR1OP (ProbeSet 11751329_s_at) / Fold change (ACY-1035/veh), FGFR1OP (ProbeSet 11751329_s_at) / Fold change (Aza/veh), VPS36 (ProbeSet 11739960_a_at) / Fold change (ACY-1035/veh), VPS36 (ProbeSet 11739960_a_at) / RFU SYPL1 (11715823_x_at) / Fold change /veh SYPL1 (11715823_x_at) / RFU IGFBP7 (11715501_s_at) / Fold change /veh IGFBP7 (11715501_s_at) / RFU REEP3 (11722064_at) / Fold change /veh REEP3 (11722064_at) / RFU IGLL1 (11728026_x_at) / Fold change /veh IGLL1 (11728026_x_at): dose or concentration left out as unconfirmed
Settings: MV-4-11 cells, 48 hours

Nc1ncn([C@@H]2O[C@H](CO)[C@@H](O)[C@H]2O)c(=O)n1 [azacitidine]
RFU 11762660_at: 14.91 RFU
